Laboratory results published in US9550738B2, “Bicyclic compounds as kinases inhibitors” (HangzhouDeRenYuCheng Biotechnology Ltd, priority 2012, dated 2017).
pIC50, pKd: −log10 of the molar value.

Tests used:
[1] = molecular target: T1, Btk (Homo sapiens, UniProt Q06187); test: In vitro Btk competition binding assay (kinase-tagged T7 phage, liganded affinity beads, qPCR readout); set-up: made in house; host or cells: E. coli BL21-derived host (T7 phage display) or HEK-293 cells; settings: 11-point 3-fold serial dilution, top concentration 10,000 nM, Hill slope -1
T1 sequence (Q06187 whole entry, species assumed): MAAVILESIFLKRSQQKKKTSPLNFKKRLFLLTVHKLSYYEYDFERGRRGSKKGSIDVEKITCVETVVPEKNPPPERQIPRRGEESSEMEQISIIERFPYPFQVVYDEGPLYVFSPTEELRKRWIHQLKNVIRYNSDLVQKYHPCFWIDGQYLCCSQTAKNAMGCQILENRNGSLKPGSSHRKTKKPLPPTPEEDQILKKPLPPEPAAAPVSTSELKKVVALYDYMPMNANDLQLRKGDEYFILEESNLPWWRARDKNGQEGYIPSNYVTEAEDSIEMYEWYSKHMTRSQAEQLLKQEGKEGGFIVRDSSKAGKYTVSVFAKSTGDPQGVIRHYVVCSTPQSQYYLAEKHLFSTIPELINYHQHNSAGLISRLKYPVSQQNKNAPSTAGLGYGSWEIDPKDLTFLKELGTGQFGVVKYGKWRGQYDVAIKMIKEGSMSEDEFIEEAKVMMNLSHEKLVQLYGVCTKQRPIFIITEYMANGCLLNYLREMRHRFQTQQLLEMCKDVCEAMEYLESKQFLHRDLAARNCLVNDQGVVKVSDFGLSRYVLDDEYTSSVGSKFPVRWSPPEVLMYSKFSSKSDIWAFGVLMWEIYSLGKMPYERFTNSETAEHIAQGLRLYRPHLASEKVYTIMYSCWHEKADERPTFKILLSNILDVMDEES
Protocol: An in vitro assay which determines the ability of a test compound to inhibit Btk.
Kinase-tagged T7 phage strains were prepared in an E. coli host derived from the BL21 strain. E. coli were grown to log-phase and infected with T7 phage and incubated with shaking at 32° C. until lysis. The lysates were centrifuged and filtered to remove cell debris. The remaining kinases were produced in HEK-293 cells and subsequently tagged with DNA for qPCR detection. Streptavidin-coated magnetic beads were treated with biotinylated small molecule ligands for 30 minutes at room temperature to generate affinity resins for kinase assays. The liganded beads were blocked with excess biotin and washed with blocking buffer (SeaBlock (Pierce), 1% BSA, 0.05% Tween 20, 1 mM DTT) to remove unbound ligand and to reduce non-specific binding. Binding reactions were assembled by combining kinases, liganded affinity beads, and test compounds in 1× binding buffer (20% SeaBlock, 0.17× PBS, 0.05% Tween 20, 6 mM DTT). All reactions were performed in polystyrene 96-well plates in a final volume of 0.135 ml. The assay plates were incubated at room temperature with shaking for 1 hour and the affinity beads were washed with wash buffer (1× PBS, 0.05% Tween 20). The beads were then re-suspended in elution buffer (1× PBS, 0.05% Tween 20, 0.5 μM non-biotinylated affinity ligand) and incubated at room temperature with shaking for 30 minutes. The kinase concentration in the eluates was measured by qPCR.
An 11-point 3-fold serial dilution of each test compound was prepared in 100% DMSO at 100× final test concentration and subsequently diluted to 1× in the assay (final DMSO concentration=1%). Kds were determined using a compound top concentration=10,000 nM. If the initial Kd determined was <0.5 nM (the lowest concentration tested), the measurement was repeated with a serial dilution starting at a lower top concentration.
Binding constants (Kds) were calculated with a standard dose-response curve using the Hill equation: Response=Background+(Signal−Background)/(1+(Kd^Hill Slope/Dose^Hill Slope)). The Hill Slope was set to −1. Curves were fitted using a non-linear least square fit with the Levenberg-Marquardt algorithm.
The following Table 1 lists compounds representative of the invention and their corresponding inhibitory activity against Btk.

[2] = molecular target: T1, Btk; test: Btk Ramos Cellular Assay (phosphorylation of the Btk substrate PLC gamma.2 after anti-IgM stimulation); type: cell-based; settings: Ramos cells, 1 hour with compound at 1, 0.1, 0.01 or 0.001 μM, goat F(ab')2 Anti-Human IgM stimulation, blot for PLC gamma.2 phosphorylation; read-out: inhibition of Btk signaling in Ramos cellular assay, IC50
Protocol: Ramos cells were grown in suspension in T225 flasks, spun down, resuspended in 50 mL serum-free media and incubated for 1 hour. Compound was added to Ramos cells in serum free media to a final concentration of 1, 0.1, 0.01, or 0.001 μM. Ramos cells were incubated with compound for 1 hour, washed again and resuspended in 100 μL serum-free media. Cells were then stimulated with 1 μg of goat F(ab′)2 Anti-Human IgM and incubated on ice for 10 minutes to activate B cell receptor signaling pathways. After 10 minutes, the cells were washed once with PBS and then lysed on ice with Invitrogen Cell Extraction buffer. Sixteen μg total protein from lysates was loaded on gels and blots were probed for phosphorylation of the Btk substrate PLC gamma.2.

Compound | pKd [1] | pIC50 [2]
C=CC(=O)Nc1cc2c(Nc3ccc(Oc4ccccc4)cc3)ncnc2cc1O[C@H]1CCOC1 [Compound 38, (S)-N-(4-((4-phenoxyphenyl)amino)-7-((tetrahydrofuran-3-yl)oxy)quinazolin-6-yl)acrylamide] | > 7.00 | –
C=CC(=O)Nc1cc2c(Nc3ccc(Oc4ccccc4)cc3)ncnc2cc1OC [Compound 36, N-(7-methoxy-4-((4-phenoxyphenyl)amino)quinazolin-6-yl)acrylamide] | 8.64 | –
CN(C)C/C=C/C(=O)Nc1cc2c(Nc3ccc(Oc4ccccc4)cc3)ncnc2cc1O[C@H]1CCOC1 [Compound 35, (S,E)-4-(dimethylamino)-N-(4-((4-phenoxyphenyl)amino)-7-((tetrahydrofuran-3-yl)oxy)quinazolin-6-yl)but-2-enamide] | > 7.00 | –

Further lines, results first:

pKd [1] | pIC50 [2] | Compound
8.92 | – | C=CC(=O)Nc1cc2c(Nc3ccc(Oc4ccccc4)cc3)ncnc2cc1OCC [Compound 37, N-(7-ethoxy-4-(4-phenoxyphenylamino)quinazolin-6-yl)acrylamide]
8.59 | > 7.00 | CCOc1cc2ncnc(Nc3ccc(Oc4ccccc4)cc3)c2cc1NC(=O)/C=C/CN(C)C [Compound 31, (E)-4-(dimethylamino)-N-(7-ethoxy-4-((4-phenoxyphenyl)amino)quinazolin-6-yl)but-2-enamide]
8.66 | > 7.00 | COc1cc2ncnc(Nc3ccc(Oc4ccccc4)cc3)c2cc1NC(=O)/C=C/CN(C)C [Compound 27, (E)-4-(dimethylamino)-N-(7-methoxy-4-((4-phenoxyphenyl)amino)quinazolin-6-yl)but-2-enamide]
